Experiments:
[1] = tested on: CYP24A1 expression in U937 cells; experiment: CYP24A1 expression (RT-qPCR) in U937 cells; conditions: U937 blood cells, 100 nM, 24 h
Method: (§1) SW480 human colon carcinoma cells (American Type Culture Collection, Manassas, VA) and HaCaT immortalized keratinocyte cells (kindly provided by Dr. Tadashi Terui, Department of Dermatology, Nihon University School of Medicine) were cultured in DMEM containing 10% FBS, 100 U/mL penicillin, and 0.1 mg/mL streptomycin. […] All cells were cultured at 37 °C in a humidified atmosphere containing 5% CO2.
(§2) For gene expression analysis, 1 × 10^4 cells per well were plated in a 24-well plate. After 24 h, the cells were treated with an ethanol control or 100 nM of each test compound for 24 h. The total RNAs from the samples were extracted using the acid guanidine thiocyanate phenol/chloroform method [57], and cDNAs were synthesized using the ImProm-II reverse transcription system (Promega, Madison, WI) [43]. Real-time PCR was performed on the ABI PRISM 7000 sequence detection system (Thermo Fisher Scientific, Waltham, MA, USA) using Power SYBR Green PCR master mix (Thermo Fisher Scientific).
(§3) One-way ANOVA followed by Turkey’s multiple comparisons: ※ p < 0.05, ※※ p < 0.01, ※※※ p < 0.001 versus vehicle control.

[2] = tested on: CYP24A1 expression in HaCaT cells; experiment: CYP24A1 expression (RT-qPCR) in HaCaT cells; conditions: HaCaT skin cells, 100 nM, 24 h
Method: as §1, §2, §3

VDR with RXRα = molecular target: T1, VDR with RXRα (Homo sapiens, UniProt P11473); experiment: Mammalian two-hybrid assay, interaction of the VDR with RXRα
T1 sequence (P11473 1-427): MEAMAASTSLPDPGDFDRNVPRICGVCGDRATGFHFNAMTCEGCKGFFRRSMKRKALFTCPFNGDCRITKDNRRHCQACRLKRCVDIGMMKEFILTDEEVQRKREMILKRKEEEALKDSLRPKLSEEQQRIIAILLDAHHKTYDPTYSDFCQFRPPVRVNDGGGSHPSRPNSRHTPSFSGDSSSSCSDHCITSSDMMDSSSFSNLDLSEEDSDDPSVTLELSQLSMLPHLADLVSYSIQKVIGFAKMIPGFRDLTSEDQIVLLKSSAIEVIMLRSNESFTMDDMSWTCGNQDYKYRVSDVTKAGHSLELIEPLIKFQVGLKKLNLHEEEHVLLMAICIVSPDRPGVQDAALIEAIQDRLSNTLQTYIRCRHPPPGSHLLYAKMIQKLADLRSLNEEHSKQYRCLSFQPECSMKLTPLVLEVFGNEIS
T1 sequence (P19793 1-462 partner): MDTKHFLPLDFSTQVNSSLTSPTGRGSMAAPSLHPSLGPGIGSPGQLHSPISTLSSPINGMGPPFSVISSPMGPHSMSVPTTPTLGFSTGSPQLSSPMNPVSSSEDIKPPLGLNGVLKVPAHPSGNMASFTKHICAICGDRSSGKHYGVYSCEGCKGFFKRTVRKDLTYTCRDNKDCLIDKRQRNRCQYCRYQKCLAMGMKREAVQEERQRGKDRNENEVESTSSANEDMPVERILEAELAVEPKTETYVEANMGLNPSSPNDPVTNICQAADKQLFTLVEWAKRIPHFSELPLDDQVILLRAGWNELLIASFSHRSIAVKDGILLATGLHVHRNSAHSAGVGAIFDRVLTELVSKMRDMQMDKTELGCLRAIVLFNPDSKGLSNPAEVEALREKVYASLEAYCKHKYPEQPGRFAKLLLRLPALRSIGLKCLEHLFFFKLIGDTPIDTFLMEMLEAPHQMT
Method: We used the expression plasmids pCMX-VDR, pCMX-VP16- VDR, pCMX-GAL4-RXRα, pCMX-GAL4-SRC-1, and pCMX-GAL4- N-CoR, as reported previously [43]. […] We used luciferase reporters: VDR-responsive Sppx3-tk-LUC and GAL4-responsive MH100(UAS) × 4-tk-LUC reporters [43].
Transfections of 50 ng of TK-Spp × 3-LUC reporter plasmid, 10 ng of pCMX-β-galactosidase, and 15 ng of pCMX-VDR for each well of a 96-well plate were performed in HEK293 cells using the calcium phosphate coprecipitation method, as described previously [43]. The mammalian two-hybrid assay for cofactor interaction with VDR used 50 ng of TK-MH100(UAS) × 3- LUC reporter plasmid, 10 ng of pCMX-β-galactosidase, 15 ng of pCMX-GAL4-RXRα, pCMX-GAL4-SRC1, or pCMX-GAL4-NCoR, and 15 ng of pCMX-VP16-VDR for each well of a 96-well plate. Luciferase and β-galactosidase activities were measured with a luminometer and a microplate reader (Molecular Devices, Sun Jose, CA, USA), respectively. Luciferase values were normalized to the internal β-galactosidase control.
(B) Effects on the interactions between the VDR and SRC-1. HEK293 cells were co-transfected with CMX-GAL4-SRC-1, CMX-VP16-VDR, and MH100 (UAS) × 4-tk-LUC and were treated with each compound over a range of concentrations. (C) Effects on interactions of the VDR with NCoR-1. HEK293 cells were co-transfected with CMX-GAL4-N-CoR in combination with CMX-VP16-VDR and MH100 (UAS) × 4-tk-LUC and were treated with each compound over a range of concentrations.

VDR-RXRα interaction EC50 (VDR with RXRα; HEK293 cells, two-hybrid): second-highest activity
VDR-RXRα interaction efficacy (VDR with RXRα; compared to natural hormone 1): 114%
Compound: C=C1[C@H](O)CC(=C/C=C2\CCC[C@]3(C)[C@@H]([C@H](C)CC#C[C@](O)(CCCC)C45CC6CC(CC(C6)C4)C5)CC[C@@H]23)C[C@H]1O [ADKM6, (25S)-25-(1-Adamantyl)-1α,25-dihydroxy-2-methylidene-26-propyl-23-yne-19,27-dinorvitamin D3]
CYP24A1 expression relative to natural hormone 1 [1]: 77.2%
CYP24A1 expression relative to natural hormone 1 [2]: 72.5%
